Converted amounts (≈) assume the structure as drawn. “And” between values parts separate entries of the source, which are not always exact repeats. Identical values can stand only once. Like-named read-outs stand apart in the source and are kept apart here. Peptide text beside a SMILES is read from it.
Experiments:
E. coli ATCC 25922 = experiment: MIC, broth microdilution (CLSI), ATCC reference strain; type: cell-based, Escherichia coli; conditions: E. coli ATCC 25922
Experimental: (§1) The minimum inhibitory concentration (MIC) of synthetic peptides was determined using the broth microdilution method in cation-adjusted Mueller-Hinton broth (MHB2 – Sigma-Aldrich, St. Louis, MO, United States), according to the recommendations of the Clinical and Laboratory Standards Institute ([CLSI, 2012]), against four reference strains, namely, P. aeruginosa ATCC 27853, E. coli ATCC 25922, S. aureus ATCC 25923 and Enterococcus faecalis ATCC 29212. MIC values of peptide 3.1-PP4 were also determined against MDR clinical isolates of P. aeruginosa (PA002, PA004, Pa3, Pa4), E. coli (Ec1, Ec2, EC001, EC002, EC003) and K. pneumoniae (KP004, KP007, KP010). The peptides were tested in the concentration range of 1–1024 μg/mL. The minimum bactericidal concentration (MBC) was determined as previously reported ([Bessa et al., 2018]). According to CLSI guidelines for antimicrobial susceptibility testing, MIC values were determined for all peptides against ATCC reference strains of two Gram-positive (S. aureus ATCC 25923 and E. faecalis ATCC 29212), and two Gram-negative (P. aeruginosa ATCC 27853 and E. coli ATCC 25922) bacterial species, and are shown in Table 2.

S. aureus ATCC 25923 = experiment: as above; type: cell-based, Staphylococcus aureus
Experimental: as §1

[1] = tested on: MDR clinical isolates of P. aeruginosa (PA002, PA004, Pa3, Pa4); type: cell-based, Pseudomonas aeruginosa
Experimental: as §1, with “2018]).” for “2018]). According to CLSI guidelines for antimicrobial susceptibility testing, MIC values were determined for all peptides against ATCC reference strains of two Gram-positive (S. aureus ATCC 25923 and E. faecalis ATCC 29212), and two Gram-negative (P. aeruginosa ATCC 27853 and E. coli ATCC 25922) bacterial species, and are shown in Table 2.”
(§2) In view of the above results, peptide conjugate 3.1-PP4 was selected for further investigation of its activity against MDR isolates of three Gram-negative bacterial species, namely, P. aeruginosa (four isolates), E. coli (five isolates), and K. pneumoniae (four isolates), whose antimicrobial resistance patterns are provided in the Supplementary Table S1. MDR isolates of K. pneumoniae were included in this analysis given (i) the high prevalence of K. pneumoniae in HAI ([Zheng et al., 2017]), (ii) that K. pneumoniae isolates used are carbanepem-resistant strains of an Enterobacteriaceae species, meaning that they are class 1 priority pathogens for the research and development of new antibiotics according to the WHO ([WHO, 2017]), and (iii) K. pneumoniae bacteria are usually better biofilm producers than the other Enterobacteriaceae species used, E. coli ([Reisner et al., 2006]). MIC values obtained are shown in Table 3, and confirm peptide’s 3.1-PP4 potent action against Gram-negative bacteria, including MDR isolates, with a selectivity index (SI), i.e., ratio of IC50 values for mammalian vs. bacterial cells, ranging from ca. 9–69. In fact, for P. aeruginosa and E. coli, MIC against MDR isolates were in the same range, or below, of those previously found for ATCC reference strains (Table 2). For K. pneumoniae, MIC values ranged between 1 and 4 μM, which is remarkable.

[2] = tested on: MDR clinical isolates of E. coli (Ec1, Ec2, EC001, EC002, EC003); type: cell-based, Escherichia coli; conditions: MHB2
Experimental: as §1, with “2018]).” for “2018]). According to CLSI guidelines for antimicrobial susceptibility testing, MIC values were determined for all peptides against ATCC reference strains of two Gram-positive (S. aureus ATCC 25923 and E. faecalis ATCC 29212), and two Gram-negative (P. aeruginosa ATCC 27853 and E. coli ATCC 25922) bacterial species, and are shown in Table 2.”
as §2

[3] = tested on: MDR clinical isolates of K. pneumoniae (KP004, KP007, KP010); type: cell-based, Klebsiella pneumoniae; conditions: for MIC: MHB2
Experimental: as §1, with “2018]).” for “2018]). According to CLSI guidelines for antimicrobial susceptibility testing, MIC values were determined for all peptides against ATCC reference strains of two Gram-positive (S. aureus ATCC 25923 and E. faecalis ATCC 29212), and two Gram-negative (P. aeruginosa ATCC 27853 and E. coli ATCC 25922) bacterial species, and are shown in Table 2.”
as §2

[4] = tested on: MDR P. aeruginosa isolates (PA002, PA004, Pa3); experiment: Inhibition of biofilm formation, crystal violet assay; type: cell-based, Pseudomonas aeruginosa; conditions: in TSB
Experimental: The ability of peptide 3.1-PP4 to inhibit the biofilm formation by three P. aeruginosa isolates (PA002, PA004, Pa3) and by three K. pneumoniae isolates (KP004, KP007 and KP010) was assessed at concentrations equal to the MIC, 1/2 × MIC and 1/4 × MIC in tryptic soy broth – (TSB – Liofilchem s.r.l., Italy) using the crystal violet assay as reported by [Gomes et al. (2014)]. Two independent experiments were performed in triplicate.
Some of the MDR isolates of P. aeruginosa and K. pneumoniae were randomly selected to form biofilms in the absence (controls) and presence (at MIC, 1/2 × MIC and 1/4 × MIC) of the peptide 3.1-PP4. In this assay, the test compounds were used at sub-inhibitory concentrations, since if they had been present at the MIC or higher concentrations, bacteria would be killed before starting to produce the biofilms.
FIGURE 1 Biofilm biomass quantitation of biofilms formed in the presence of peptide 3.1-PP4. Biofilms of three MDR P. aeruginosa (PA002, Pa3, and PA004) and of three MDR K. pneumoniae (KP004, KP007, and KP010) were formed in the presence of the peptide at three different concentrations, MIC, 1/2 × MIC, and 1/4 × MIC. Control biofilms were grown in absence of the peptide. Two independent experiments were performed in triplicate. Error bars represent SD. […]

- MIC (E. coli ATCC 25922; broth microdilution in MHB2, CLSI, value in parentheses): 1.0 µM
- MIC (E. coli ATCC 25922; broth microdilution in cation-adjusted Mueller-Hinton broth (MHB2), CLSI, range tested 1–1024 μg/mL): 2 µg/mL
- MIC (S. aureus ATCC 25923; ATCC 25923): 16 µM
- MIC (S. aureus ATCC 25923; S. aureus ATCC 25923, broth microdilution in MHB2, CLSI, range tested 1–1024 μg/mL): 32 µg/mL
- MIC ([1]; MDR P. aeruginosa isolate PA002, MHB2): 4 µg/mL
- MIC ([1]; MDR P. aeruginosa isolate PA004, MHB2): 2 μg/mL and 1 μM
- MIC ([1]; MDR P. aeruginosa isolate Pa3, MHB2): 2 μg/mL and 1 μM
- MIC ([1]; MDR P. aeruginosa isolate Pa4, MHB2): 2 μg/mL and 1 μM
- MIC ([1]; MDR clinical isolates of (PA002, PA004, Pa3, Pa4)): 2 µM
- MIC ([2]; MDR E. coli isolate EC001): 2 μg/mL and 1 μM
- MIC ([2]; MDR E. coli isolate EC002): 2 μg/mL and 1 μM
- MIC ([2]; MDR E. coli isolate EC003): 1 µg/mL (≈ 0.515 µM)
- MIC ([2]; MDR E. coli isolate Ec1): 4 µg/mL (≈ 2.06 µM)
- MIC ([2]; MDR E. coli isolate Ec2): 2 μg/mL and 1 μM
- MIC ([3]; MDR K. pneumoniae isolate KP004): 4 µg/mL (≈ 2.06 µM)
- MIC ([3]; MDR K. pneumoniae isolate KP007): 8 µg/mL (≈ 4.12 µM)
- MIC ([3]; MDR K. pneumoniae isolate KP010): 2 µg/mL (≈ 1.03 µM)
- MIC values for K. pneumoniae ([3]; MDR clinical isolates of (KP004, KP007, KP010)): 1 to 4 µM
SMILES: CC(C)C[C@H](NC(=O)[C@H](Cc1c[nH]c2ccccc12)NC(=O)[C@H](CCCCN)NC(=O)[C@H](CC(C)C)NC(=O)[C@H](CC(C)C)NC(=O)[C@H](CCCCN)NC(=O)[C@@H](N)CCCCN)C(=O)N[C@@H](CC(C)C)C(=O)N[C@@H](CCCCN)C(=O)N[C@@H](CC(C)C)C(=O)N[C@@H](CC(C)C)C(=O)N[C@@H](CCCCN)C(=O)N[C@H](C(=O)N[C@H](C(=O)N[C@@H](CCCCN)C(=O)N[C@@H](CO)C(N)=O)[C@@H](C)O)[C@@H](C)O [Peptide 3.1-PP4] (H-KKLLKWLLKLLKTTKS-NH2; N-terminus assumed)
- biofilm formation (crystal violet absorbance at 595 nm) ([4]; peptide at 1/2 and 1/4 of the MIC, three P. aeruginosa isolates): does not significantly inhibit biofilm formation
- biofilm formation (crystal violet absorbance at 595 nm) ([4]; peptide at MIC, exception isolate PA002, two experiments in triplicate): no biofilm was actually produced
